Laboratory results: US20220305017A1, “COMPOSITIONS AND METHODS FOR THE TREATMENT OF ESTROGEN-DEPENDENT DISORDERS” (ObsEva S.A., priority 2019, published 2022)

Tested on: human female patients diagnosed as having adenomyosis
Assay: human clinical trial in adenomyosis (single-patient longitudinal case study and multi-patient analysis, n = 6)
Assay type: in vivo
Details: single patient
From the text: This examples describes the results of a human clinical trial conducted to evaluate the ability of a GnRH antagonist, 3-[2-fluoro-5-(2,3-difluoro-6-methoxybenzyloxy)4-methoxyphenyl]-2,4-dioxo-1,2,3,4-tetrahydrothieno [3,4d]pyrimidine-5-carboxylic acid (represented by formula (VI)), or a pharmaceutically acceptable salt thereof, to treat adenomyosis, an estrogen-dependent disease, in human patients diagnosed as having this condition.
One aim of this study was to investigate the ability of the GnRH antagonist to maintain its therapeutic effects despite being administered to patients in a progressively lower dosage throughout the trial. To this end, the patients treated in this study was first administered the GnRH antagonist of formula (VI) in an amount of 200 mg/day during an initial 12-week period. The GnRH antagonist was then administered to the patients in a reduced amount of 100 mg/day during a subsequent 12-week period. The patients' responsiveness to the GnRH antagonist was monitored throughout the study.
In addition to assessing the effectiveness of the GnRH antagonist when administered at lower doses, another aim of this study was to evaluate the ability of the GnRH antagonist to sustain its therapeutic effects even after treatment was ceased altogether. Accordingly, after being periodically administered the GnRH antagonist of formula (VI) over the course of 24 weeks, first in an amount of 200 mg/day and then in an amount of 100 mg/day, treatment with the GnRH antagonist was halted entirely. The patients were then monitored during a post-treatment follow-up period to analyze the extent to which the therapeutic effects of the compound were sustained.
To test the effects of compound (VI), a total of n=6 human female patients diagnosed as having adenomyosis were administered compound (VI) in accordance with the dosing schedule described above. One of these patients in particular was closely monitored beginning well before their treatment with compound (VI) was initiated. The specific results of this patient's therapy are described in the section entitled “Single-Patient Longitudinal Case Study,” below. The cumulative set of results for all 6 patients is reported in the section entitled “Multi-Patient Analysis,” below.
As part of the clinical trial, a case study was conducted in which a single patient of reproductive age having clinically diagnosed adenomyosis was monitored during the course of treatment with compound (VI). The patient was nulliparous. Two years before the study began, the patient presented with heavy menstrual bleeding, pelvic pain, and dysmenorrhea. […] Their gynecologist prescribed ulipristal acetate (UPA), a selective progesterone receptor modulator (SPRM), to be administered in an amount of 5 mg/day over the course of a treatment period lasting three months.
The patient was then recommended for treatment with the GnRH antagonist represented by formula (VI) herein. Accordingly, the patient was orally administered compound (VI) in an amount of 200 mg/day for three months. Following this initial three-month period, the patient was orally administered compound (VI) in a reduced amount of 100 mg/day for a subsequent three-period. During both treatment periods, compound (VI) was administered to the patient in the form of a choline salt.
The patient was recommended for once-daily treatment with the GnRH antagonist of formula (VI). Accordingly, the patient was administered the GnRH antagonist of formula (VI) in an amount of 200 mg/day during a first treatment period, which lasted three months. At the conclusion of the first treatment period, the patient began a second treatment period in which they were administered compound (VI) in a reduced amount of 100 mg/day for three months. During both treatment periods, compound (VI) was administered to the patient in the form of a choline salt. […]

**Q.** `CC(=O)O[C@]1(C(C)=O)CC[C@H]2[C@@H]3CCC4=CC(=O)CCC4=C3[C@@H](c3ccc(N(C)C)cc3)C[C@@]21C` [UPA, ulipristal acetate, reference compound] was tested. Which bleeding during treatment (5 mg/day for three months) did it give?
**A.** breakthrough bleeding and spotting

**Q.** What about the “symptoms of pelvic pain and dysmenorrhea” value (5 mg/day for three months, before compound (VI)) of the same compound?
**A.** worsened

**Q.** What about the “adenomyotic lesions by MRI” value (end of 5 mg/day three-month course, FIG. 4B) of the same compound?
**A.** significantly increased quantity of adenomyotic lesions
